Experimental data reported in ChEMBL document CHEMBL1201862, “PubChem BioAssay data set” (2004).
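Dose response: 5 concentrations. Exposure: 48 h. Format: 96-well plates. Endpoint: linear interpolation; highest concentration if not reached. GI50: concentration for 50% inhibition of growth.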 Active and inactive are the calls of the source. No stated cut-off is given here; in the data, active = GI50 up to about 1.1 µM and inactive = higher.

What was measured:
Assay in all cases: NCI tumour cell line growth inhibition, 48 h
NCI-H226 = test system: NCI-H226
OVCAR-3 = test system: OVCAR-3
MDA-MB-435 = test system: MDA-MB-435
A498 = test system: A498
T47D = test system: T47D
NCI-H23 = test system: NCI-H23
NCI-H522 = test system: NCI-H522
HCT-15 = test system: HCT-15
DU-145 = test system: DU-145
BT-549 = test system: BT-549
RXF 393 = test system: RXF 393
SNB-75 = test system: SNB-75
EKVX = test system: EKVX
786-0 = test system: 786-0
PC-3 = test system: PC-3
SW-620 = test system: SW-620
HOP-92 = test system: HOP-92
MCF7 = test system: MCF7
SNB-19 = test system: SNB-19

Measured: GI50

Clc1nc(Cl)c(Cl)c(Cl)n1
inactive: NCI-H226 20.7 µM | OVCAR-3 13.9 µM | MDA-MB-435 21.8 µM | A498 19.4 µM | T47D 18.2 µM | NCI-H23 18.5 µM | NCI-H522 15.9 µM | DU-145 16.7 µM | BT-549 20.6 µM | RXF 393 18.3 µM | SNB-75 17.8 µM | EKVX 32.1 µM | 786-0 19.7 µM | PC-3 16.6 µM | SW-620 6.85 µM | HOP-92 25.5 µM | MCF7 15.8 µM | SNB-19 22.3 µM
19.1 µM: HCT-15

C/C(=N\c1cccc(Cl)c1)c1ccncc1
> 100 µM: HCT-15
inactive: NCI-H226 > 100 µM | OVCAR-3 > 100 µM | MDA-MB-435 > 100 µM | A498 > 100 µM | T47D > 100 µM | NCI-H23 > 100 µM | NCI-H522 > 100 µM | DU-145 > 100 µM | BT-549 > 100 µM | RXF 393 > 100 µM | SNB-75 > 100 µM | EKVX > 100 µM | 786-0 > 100 µM | PC-3 > 100 µM | SW-620 > 100 µM | HOP-92 > 100 µM | MCF7 > 100 µM | SNB-19 > 100 µM

CC(C)(C)OC(=O)NCC(c1c[nH]c2ccccc12)c1c[nH]c2ccccc12
inactive: NCI-H226 21 µM | OVCAR-3 15.3 µM | MDA-MB-435 15.7 µM | A498 > 100 µM | T47D 17 µM | NCI-H23 18.4 µM | NCI-H522 18.2 µM | DU-145 15.6 µM | BT-549 18.9 µM | RXF 393 4.56 µM | SNB-75 14.7 µM | EKVX 12.7 µM | 786-0 16.1 µM | PC-3 15.8 µM | SW-620 17 µM | HOP-92 13.1 µM | MCF7 67.5 µM | SNB-19 16.9 µM
20.8 µM: HCT-15

Cc1ccc(C2=Nc3ccccc3SC(c3cccc([N+](=O)[O-])c3)C2)cc1 (centres undefined)
48.1 µM: HCT-15
inactive: NCI-H226 > 100 µM | OVCAR-3 8.59 µM | MDA-MB-435 13.1 µM | A498 > 100 µM | T47D 10.7 µM | NCI-H23 11.8 µM | NCI-H522 9.59 µM | DU-145 13.1 µM | BT-549 15.7 µM | RXF 393 16.4 µM | SNB-75 11.4 µM | EKVX 49.7 µM | 786-0 6.3 µM | PC-3 10.2 µM | SW-620 3.18 µM | HOP-92 10.4 µM | MCF7 4.08 µM | SNB-19 26.9 µM

O=C1c2cc([N+](=O)[O-])sc2C(=O)c2ccsc21
active: OVCAR-3 0.0392 µM | MDA-MB-435 0.177 µM | T47D 0.478 µM | NCI-H23 0.352 µM | NCI-H522 0.195 µM | DU-145 0.273 µM | BT-549 0.438 µM | RXF 393 0.486 µM | EKVX 1.08 µM | 786-0 0.449 µM | PC-3 0.532 µM | SW-620 0.245 µM | HOP-92 0.201 µM | MCF7 0.213 µM
0.284 µM: HCT-15
inactive: NCI-H226 1.36 µM | A498 2.14 µM | SNB-75 1.4 µM | SNB-19 1.89 µM

CC(NC(NC(C)C12CC3CC(CC(C3)C1)C2)=C(C(Cl)=C(Cl)Cl)[N+](=O)[O-])C12CC3CC(CC(C3)C1)C2 (centres undefined)
inactive: NCI-H226 > 26.2 µM | OVCAR-3 9.71 µM | MDA-MB-435 27.2 µM | A498 36.1 µM | T47D 20.4 µM | NCI-H23 7.96 µM | NCI-H522 7.11 µM | DU-145 45 µM | BT-549 24 µM | RXF 393 13 µM | SNB-75 43.4 µM | EKVX 11.3 µM | 786-0 13 µM | PC-3 8.3 µM | SW-620 17.6 µM | HOP-92 3.58 µM | MCF7 8.36 µM | SNB-19 30.2 µM
18.7 µM: HCT-15
